Read-outs that look alike come from different tables or passages of the source. Each block holds one compound with its values, some of them ahead of it.
Columns and labels:
[1] = system: HIV-infected (U1) cell line; test: Intracellular DRV concentration-time profile in HIV-infected monocytic; format: in vitro ADME; settings: U1 cells
monocytes = settings: absence of cobicistat; cited from earlier work
HIV = format: cell-based; settings: U1 cells, 24 h, p24
CYP3A4 [2] = molecular target: T1, CYP3A4 (Homo sapiens, UniProt P08684); settings: read-out: apparent Km; ethanol as CYP3A4 substrate; cited from earlier work
T1 sequence (P08684 whole entry): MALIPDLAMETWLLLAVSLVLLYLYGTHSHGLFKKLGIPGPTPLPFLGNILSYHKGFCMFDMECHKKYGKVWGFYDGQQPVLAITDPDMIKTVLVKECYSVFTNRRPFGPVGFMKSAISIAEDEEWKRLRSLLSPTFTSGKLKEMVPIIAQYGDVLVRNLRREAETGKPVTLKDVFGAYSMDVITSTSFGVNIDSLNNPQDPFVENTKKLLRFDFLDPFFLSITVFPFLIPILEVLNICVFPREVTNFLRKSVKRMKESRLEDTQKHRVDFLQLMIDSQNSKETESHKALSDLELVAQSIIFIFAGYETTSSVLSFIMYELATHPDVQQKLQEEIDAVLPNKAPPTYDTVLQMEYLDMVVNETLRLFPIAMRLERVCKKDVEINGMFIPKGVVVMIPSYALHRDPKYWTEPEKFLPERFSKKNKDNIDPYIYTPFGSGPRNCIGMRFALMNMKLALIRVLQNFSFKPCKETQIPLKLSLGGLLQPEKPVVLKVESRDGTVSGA

[3] = oral 100 mg QD; cited from earlier work
CYP3A4 [4] = molecular target: T1, CYP3A4; settings: cited from earlier work
[5] = 10 mM and 50 mM ethanol (data not shown)

decrease in intracellular AUCtot of DRV ([1]; 3 μg/ml DRV, 20 mM ethanol, compared to DRV alone): 11%
intracellular DRV AUCtot, effect of ethanol [1, 5]: no significant change
intracellular DRV Cmax, effect of ethanol [1, 5]: no significant change
intracellular Cmax of DRV, effect of ethanol ([1]; 20 mM ethanol): without altering
Compound: CC(C)CN(C[C@@H](O)[C@H](Cc1ccccc1)NC(=O)O[C@H]1CO[C@H]2OCC[C@H]21)S(=O)(=O)c1ccc(N)cc1 [DRV, Darunavir]

Compound: COc1cc2c(cc1Cc1cccc(Cl)c1F)c(=O)c(C(=O)O)cn2[C@H](CO)C(C)C [EVG, Elvitegravir]
intracellular AUCtot, effect of ethanol exposure (monocytes): decreases
intracellular Cmax, effect of ethanol exposure (monocytes): decreases

Compound: CCO [Ethanol]
increase in HIV replication compared to control (HIV; 10 mM ethanol alone): 89%
increase in HIV replication compared to control (HIV; 20 mM ethanol alone): 20.6%
increase in HIV replication compared to control (HIV; 50 mM ethanol alone): 41%
Km (CYP3A4 [2]): 10 mM

Compound: CC(C)c1nc(CN(C)C(=O)N[C@H](C(=O)N[C@@H](Cc2ccccc2)C[C@H](O)[C@H](Cc2ccccc2)NC(=O)OCc2cncs2)C(C)C)cs1 [RTV, Ritonavir]
Cmax [3]: 1 µg/mL

Compound: Cc1c(O)cccc1C(=O)N[C@@H](CSc1ccccc1)[C@H](O)CN1C[C@H]2CCCC[C@H]2C[C@H]1C(=O)NC(C)(C)C [nelfinavir]
decrease in IC50 in response to ethanol exposure (CYP3A4 [4]): 3 fold
